Key:
[1] = system: MAP/ERK signaling pathway (p44/42 MAP kinase); experiment: Western blot of MAP/ERK phosphorylation, EBI2 expressing CHO cell line; assay type: cell-based, Chinese hamster; details: 5 min after compound addition
Protocol: (§1) Cells (E2=CHO/AEQ/Gqi5/hEBI2) were seeded at 2×10^5 cell/well in a 12 well plate (TPP #92012) and incubated at 37° C./5% CO2 overnight. The next day medium was removed and cells were starved in serum-free medium for 4 h. Subsequently compound was added for 5 min at RT before cells were lysed (70 ul, 0.5% Triton-X100, 300 mM NaCl, 50 mM Tris pH7.5, Complete™ protease inhibitor cocktail Roche #04693124001). Cell lysates were resolved by gradient SDS-PAGE (NuPage™4-12%, #NP0322Box), transferred by semi-dry blotting to nitrocellulose (Invitrogen, #LC2001) and probed with a phospho p42/44 MAPK (T202/Y204) rabbit mAb (Cell Signalling #4376S). After treatment with a secondary goat anti rabbit-HRP (Pierce #41460) antibody the blots were developed for chemiluminescence (SuperSignal West Dura™, Pierce #34075) and visualized using a BioRad GEL DOC™ imaging system.

[2] = system: MAP/ERK signal in parental CHO cell line; experiment: Western blot of MAP/ERK phosphorylation, parental CHO cell line without human EBI2; assay type: cell-based, Chinese hamster; details: high concentrations
Protocol: as §1

RS11846 cells = experiment: chemotaxis 96 transwell assay; assay type: cell-based; details: 3 hr migration
Protocol: (§2) B cells (RS11846 or EBV-infected human B-cells) or murine bone marrow-derived dendritic cells were washed once with medium and resuspended at 1×10^6/ml. 100 μl of this suspension was added into the wells of the filter plate and gently placed into the receiver plate containing 150 μl of a given compound dilution. The final DMSO concentration was less then 0.1%. After migration for 3 hr at 37° C. in an incubator, the filter plate was carefully removed from the receiver plate and discarded. The migrated cells in the receiver plate were resuspended and transferred into round-bottom 96-well plate, centrifuged and resuspended in 100 μl PBS containing 2% FCS and 0.1% NaN3 (FACS buffer). The input cells (100 μl) were similarly processed. For the calculation of the specific migration, a fixed number of beads (10000; Invitrogen #PCB100)) in 20 μl FACS buffer was added and the suspension was analyzed by flow cytometry using a FACS instrument PAS™ (Partec). Cells were identified based on their forward scatter (FSC) and side scatter (SSC) pattern. Chemotaxis is expressed either as total cell number or as percent of input cells.

[3] = system: mouse bone marrow-derived dendritic cells (wild type); experiment: chemotaxis assay, wild type dendritic cells; assay type: cell-based
Protocol: as §2
(§3) In order to generate sufficient numbers of dendritic cells (DC) we isolated bone marrow from wild type and EBI2-deficient mice (Deltagen) and treated them in culture for 7-8 days with murine IL4 and murine GM-CSF. […]

[4] = system: bone marrow-derived dendritic cells from EBI2(−/−) mice; experiment: chemotaxis assay, EBI2(−/−) dendritic cells; assay type: cell-based, mouse
Protocol: as §2, §3

hEBI2 = hEBI2 (Homo sapiens, UniProt P32249); experiment: β-arrestin Pathhunter assay; assay type: cell-based; parameters: host or cells: HEK293-BAEA, transient transfection with Fugene6; details: for EC50: HEK293-BAEA transiently transfected with hEBI2-prolink, read-out: EC50, β-arrestin recruitment
Sequence of hEBI2 (P32249 whole entry): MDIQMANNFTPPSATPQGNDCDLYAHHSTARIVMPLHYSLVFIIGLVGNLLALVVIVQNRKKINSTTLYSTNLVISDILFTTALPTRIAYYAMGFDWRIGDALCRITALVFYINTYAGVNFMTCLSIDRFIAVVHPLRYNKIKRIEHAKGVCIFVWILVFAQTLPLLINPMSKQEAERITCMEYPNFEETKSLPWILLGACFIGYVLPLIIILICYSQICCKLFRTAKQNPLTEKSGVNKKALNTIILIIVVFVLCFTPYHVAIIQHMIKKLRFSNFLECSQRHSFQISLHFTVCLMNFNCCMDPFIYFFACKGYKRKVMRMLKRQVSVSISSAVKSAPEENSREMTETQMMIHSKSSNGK
Excerpt: Several assay technologies (Transfluor™, (Ghosh, R. N., et al. (2005). Quantitative cell-based high-content screening for vasopressin receptor agonists using transfluor technology. J Biomol Screen 10.; Granas, C., at al. (2005). High content screening for G protein-coupled receptors using cell-based protein translocation assays. Comb Chem High Throughput Screen 8.); Pathhunter™, (Hammer, M. M., et al. (2007). A novel enzyme complementation-based assay for monitoring G-protein-coupled receptor internalization. Faseb J, 21; Wehrman, T. S., at al. (2005). Enzymatic detection of protein translocation. Nat Methods 2), Tango™, (Barnea, G., et al. (2008). Here we have applied the Pathhunter™ technology (DiscoverRx) to probe for an interaction of EBI2 with B-arrestin. For that human EBI2 was cloned into the Prolink™ vector (DiscoveRx) for GPCR-prolink fusion protein production. Parental HEK293 cells that stably express β-arrestin2-β-gal-EA fusion protein (HEK293-BAEA) were detached and transiently transfected with hEBI2-prolink vector using Fugene6 transfection reagent in suspension mode. Transfected cells in assay medium (Phenol Red-free DMEM with 10% FBS) were plated into white solid 384 well plates at 15,000 cells/25 μl/well. After overnight incubation, 200 nl of test molecules were transferred into the cell plates by PinTool™ (GNF Systems) followed by 1-2 hour incubation at 37° C., 5% CO2. Flash detection reagents were added at 12.5 μl/well. After 5 min—1 hr room temperature incubation, the cell plates were read on CLIPR™ (Perkin Elmer) or Acquest™ (Molecular Devices) for luminescence signal.

mouse EBI2 receptor = molecular target: T1, mouse EBI2 receptor (Mus musculus, UniProt Q3U6B2); experiment: aequorin assay, mouse EBI2 CHO-Aeq cells; assay type: cell-based
T1 construct: expressed in transfected cells; host or cells: CHO-K1 expressing apoaequorin (CHO-Aeq), Gqi5 or Gα16 background
T1 sequence (Q3U6B2 whole entry): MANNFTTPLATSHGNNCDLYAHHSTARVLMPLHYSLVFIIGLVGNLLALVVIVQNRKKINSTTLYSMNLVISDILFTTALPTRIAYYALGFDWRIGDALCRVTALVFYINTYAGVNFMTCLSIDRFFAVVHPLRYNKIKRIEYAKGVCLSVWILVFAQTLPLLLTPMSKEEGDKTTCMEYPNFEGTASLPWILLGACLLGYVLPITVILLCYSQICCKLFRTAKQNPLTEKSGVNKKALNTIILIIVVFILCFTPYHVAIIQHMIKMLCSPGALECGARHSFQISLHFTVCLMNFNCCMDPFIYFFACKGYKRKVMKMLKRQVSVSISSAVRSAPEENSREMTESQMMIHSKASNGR
Excerpt: Human EBI2 gene was cloned using RT-PCR from HL-60 cDNA and corresponded to the Genbank accession number NP_004942. The human EBI2 was inserted into the pEFIN3 vector at the EcoRI and XbaI sites in the multiple cloning site. Mouse EBI2 was cloned using RT-PCR from mouse genomic DNA and corresponded to the Genbank accession number Q3U6B2. The mouse EBI2 was inserted into the pEFIN3 vector at the EcoRI and XbaI sites in the multiple cloning site. Plasmids expressing human and mouse EBI2 were stably transfected in CHO-K1 and HEK293 cells expressing the apoaequorin (CHO-Aeq and HEK-Aeq) (Table 1). mRNA sequence integrity of EBI2 gene was checked using RT-PCR at T0 & T30 culture times in CHO cells.
We also confirmed activation of hEBI2 by 7b,25DHC in different CHO-Aeq cell backgrounds (Gqi5 and Gα16 (=WTA11)) (FIG. 14). […] Finally, we confirmed activation of hEBI2 by 7b,25DHC with hEBi2-HEK-Aeq Gα16 cells (pCAeqG9) and hEBi2 transiently transfected in HEK T cells (data not shown).

## C[C@H](CCCC(C)(C)O)[C@H]1CC[C@H]2[C@@H]3[C@H](O)C=C4C[C@@H](O)CC[C@]4(C)[C@H]3CC[C@]12C [7a,25DHC, cholest-5-ene-3b,7a,25-triol]
[1]
  activation of MAP/ERK signaling pathway (p44/42 MAP kinase phosphorylation): potently activate
[2]
  activation of MAP/ERK signal in control cell line: do not activate
RS11846 cells
  attraction (migration) of RS11846 cells: potently attract
[3]
  migration of DCs from wild type animals towards compound: migrate
[4]
  migration of DCs from EBI2(−/−) mice towards compound: do not migrate
hEBI2
  EC50: 8 nM

## C[C@H](CCCC(C)(C)O)[C@H]1CC[C@H]2[C@@H]3[C@@H](O)C=C4C[C@@H](O)CC[C@]4(C)[C@H]3CC[C@]12C [7b,25DHC, cholest-5-ene-3b,7b,25-triol]
Mouse EBI2 receptor
  activation of mouse EBI2 receptor: activation
hEBI2
  efficacy, β-arrestin recruitment: 48%
  EC50: 837 nM
